Assay results reported in a melting point compilation (Tetko et al.; mined from patent text by program, amines drawn as free bases though some values may be those of a salt).
Residues, ends and D or L forms follow the SMILES beside them. *: point of attachment. Tos = Cc1ccc(S(=O)(=O)*)cc1; Cam = NC(=O)C*

Compound `COc1ccc(CSc2nnc(-c3ccc4nccn4c3)o2)cc1C#N` has a melting point of 211 to 212 °C.
For `COc1ccccc1C(CNc1c(C#N)cnn2cccc12)N1CCOCC1` (stereo unspecified), the melting point was 157 °C.
Work on `COc1ccc2[nH]cc(CC(C)(C)N)c2c1` yielded a melting point of 114 to 116 °C.
With `COc1ccc2c(N3CCCNCC3)noc2c1` the melting point was 74 to 75 °C.
With `COC(=O)C(C)c1ccc2c(c1)Cc1cc([N+](=O)[O-])ccc1-2` (stereo unspecified) the melting point was 105 to 107 °C.
With `CC1(C)CC(=O)CC(C)(P(=O)(O)O)C1` (stereo unspecified) the melting point was 167 to 168 °C.
Work on `COC(=O)C1=C2CCC(c3ccccc3)CN2CCC1=O` (stereo unspecified) yielded a melting point of 150 to 151 °C.
`Cc1ccc(C(=O)C2=C(O)C(=O)N(c3ccc(C(C)C)nn3)C2c2ccc(C(C)C)cc2)cc1` (stereo unspecified) showed a melting point of 269 to 270 °C.
`O=C(O)CN1C(=O)C(NC(=O)[C@@H](S)Cc2ccccc2)CCC2CC=CC=C21` (stereo partly specified) showed a melting point of 107 to 111 °C.
In the case of `CC(C)(C)OC(=O)N1CCc2c(C=O)c3ccccc3n2CC1`, the melting point is reported as 167 to 168 °C.
For `CC(Oc1ccccc1-c1ccc(Cl)c(C(=O)NCC23CC4CC(CC(C4)C2)C3)c1)C(=O)O` (stereo unspecified), the melting point was 107 to 110 °C.
Work on `CC(=O)OCC1OC(c2ccc(F)c(Cc3ccc(Cl)s3)c2)C(OC(C)=O)C(OC(C)=O)C1OC(C)=O` (stereo unspecified) yielded a melting point of 130 to 131 °C.
In the case of `Cc1cc(C)cc(Sc2c(C(C)C)c(=O)[nH]c(=O)n2CCC2CC=CC2)c1`, the melting point is reported as 128 to 129 °C.
In the case of `CCN(CC)C(=O)COc1ccc(C(=O)CBr)cc1OC`, the melting point is reported as 101 to 103 °C.
`OCCc1ccc(Nc2ncc3c(n2)-c2ccccc2C(c2ccc(F)c(F)c2)C3)cc1` (stereo unspecified) showed a melting point of 170 to 172 °C.
Compound `CCOC(=O)COc1c(C)cc(C(OC)(C(F)(F)F)C(F)(F)F)cc1C` has a melting point of 97 to 98 °C.
With `Cc1cccc2c(=O)c3ccccc3ccc12` the melting point was 77 to 80 °C.
In the case of `CC1CCN(Cc2cc(COc3cccc4c3CN(C3CCC(=O)NC3=O)C4=O)on2)CC1` (stereo unspecified), the melting point is reported as 168 to 170 °C.
Compound `O=C(Nc1ccc(OCCCCl)c2ccccc12)c1cc(F)cc(N2CCCCC2)c1` has a melting point of 181 to 182 °C.
`CC1C(S(=O)(=O)c2ccccc2)CCCC12OCCO2` (stereo unspecified) showed a melting point of 76 to 77 °C.
With `CC(=O)c1ccc(N)c(Br)c1` the melting point was 59 to 62 °C.
Work on `COc1ccc(C(=O)Nc2ccccc2)cc1NCc1cc(F)cc(F)c1` yielded a melting point of 175 to 177 °C.
Work on `Cc1c(-c2ccccc2)cccc1-c1ccc2ccccc2c1` yielded a melting point of 106 to 107 °C.
With `CC(C)(C)OC(=O)N1CCN(c2cccc([N+](=O)[O-])c2)CC1` the melting point was 82 to 92 °C.
With `CC1(C)Oc2ccc(C#N)cc2[C@@H](NC=O)[C@@H]1O` (relative stereo) the melting point was 228 to 230 °C.
`O=C(c1ccccc1)c1cc(Cl)ccc1C=CCN1C(=O)c2ccccc2C1=O` gave a melting point of 70 to 72 °C.
`Oc1ccc2cc(-c3csc(-c4ccccc4)n3)ccc2c1` showed a melting point of 194 to 197 °C.
In the case of `c1ccc(COc2ccc(COc3ccc(CCCn4ccnc4)cc3)cn2)cc1`, the melting point is reported as 84 to 85 °C.
With `CCOc1cc(-c2cc(C(F)(F)F)nc(-c3ccnc(-c4ccc(S(N)(=O)=O)s4)c3)n2)ccc1C(F)(F)F` the melting point was 238 °C.
Work on `CCCCCCCNC(=O)Nc1ccc(N(C)C)cc1C(=O)NCC1CCCN(C(c2ccccc2)c2ccccc2)C1` (stereo unspecified) yielded a melting point of 142 to 144 °C.
`CC(C)c1cc2c(s1)Sc1ccccc1NC2=S` showed a melting point of 210 °C.
For `CC(C)(C)c1ccc(OCC(=O)NCc2ccc(NS(C)(=O)=O)cc2)cc1`, the melting point was 163 °C.
`Oc1ccc(C(c2ccc(O)cc2)n2cncn2)cc1` gave a melting point of 230 °C.
Compound `Cc1ccccc1Oc1cccc(CCC(=O)O)c1O` has a melting point of 106 to 107 °C.
`O=CN1CCC(C(c2ccccc2)c2ccccc2)CC1` showed a melting point of 172 to 174 °C.
In the case of `CCCc1nc2ccc(OC(F)(F)F)cc2[nH]1`, the melting point is reported as 88 to 90 °C.
For `COc1ccc(C(=O)C=Cc2ccccc2F)cc1`, the melting point was 92 to 93 °C.
Work on `CC(C)(C)OC(=O)N[C@@H](CCC(=O)c1ccccc1)C(=O)OC(C)(C)C` yielded a melting point of 85 °C.
For `CNc1ccc(-c2cnc3[nH]c(=O)n(CC4CCOCC4)c3n2)cn1`, the melting point was > 260 °C.
`C[C@]1(COc2ccc(N3CCN(C(=O)c4ccc(OC(F)(F)F)cc4)CC3)cc2)Cn2cc([N+](=O)[O-])nc2O1` gave a melting point of 202 to 203 °C.
In the case of `O=Cc1cccc(NC(=O)NC2N=C(c3ccccc3F)c3ccccc3N(CC(=O)N3CC4CCC(CC4)C3)C2=O)c1` (racemic), the melting point is reported as 164 to 182 °C.
For `COC(=O)Nc1cccc(C)c1CNc1cc(C(=O)N(C)C)cc2c1nc(C)n2C`, the melting point was 193 to 195 °C.
Work on `NC(=O)COc1ccccc1N` yielded a melting point of 117 °C.
`Cc1cc(O)c(S(=O)Cc2ccccc2)c(=O)o1` (stereo unspecified) showed a melting point of 150 to 153 °C.
For `COc1ccc(CCNC(=O)C(F)(F)F)cc1NS(C)(=O)=O`, the melting point was 129 to 130 °C.
With `O=C1CCCc2c(F)cc(F)cc21` the melting point was 89 to 91 °C.
Work on `Cc1cc(-c2ccc(C(F)(F)F)cc2)nc(-c2cccc(-c3ccc(S(N)(=O)=O)s3)c2)c1` yielded a melting point of 211 °C.
Compound `Cc1cc(-c2cnn3c(O)ncnc23)ccc1S(C)=O` (stereo unspecified) has a melting point of 281 to 282 °C.
Compound `CCc1ccc(Cn2c(C)nc3ccc(C(=O)OC)nc32)c(Cl)c1` has a melting point of 172 to 173 °C.
With `Cc1cn(C)c2cc(C(C)C)c(Oc3cnc(N)nc3N)cc12` the melting point was 185 °C.
`Cc1c(CCN(C)C(=O)OC(C)(C)C)c2cc(S(=O)(=O)c3ccccc3)ccc2n1C` showed a melting point of 147 to 149 °C.
Compound `Nc1nccc2cc(CNC(=O)C3CCCN3)ccc12` (stereo unspecified) has a melting point of 140 to 142 °C.
`O=C(c1ccc(Sc2ccccc2)cc1)c1ccc(O)cc1O` gave a melting point of 117 to 118 °C.
`CC(C)n1nc(C#Cc2ccc(F)cc2)ccc1=O` gave a melting point of 106 °C.
Work on `O=S(=O)(On1nnc2ccc(Cl)cc21)c1ccc(Cl)cc1` yielded a melting point of 125 to 127 °C.
`COC(=O)c1ccc(C(=O)C2C(=O)N(C(N)=O)c3ccc(Cl)cc32)s1` (stereo unspecified) gave a melting point of 219 to 221 °C.
Compound `COc1ccc(/C=C/C(=O)c2ccc(C(=O)O)cc2)cc1-c1cccs1` has a melting point of 219 to 220 °C.
In the case of `CN(CCc1ccc(NC(=N)C(F)(F)F)cc1)Cc1ccccc1`, the melting point is reported as 105 to 107 °C.
In the case of `NC(=O)c1ncn(Cc2ccc(Cl)c(C(F)(F)F)c2)c1N`, the melting point is reported as 230 to 232 °C.
For `CC(=O)c1ccccc1CN1C(=O)C(NC(=O)Nc2cccc(-c3nnn[nH]3)c2)N=C(C2CCCCC2)c2cccc(C)c21` (stereo unspecified), the melting point was 199 to 208 °C.
`O=S(=O)(Nc1cccc(OCc2cccc(-c3ccccc3)n2)c1)C(F)(F)F` showed a melting point of 115 to 117 °C.
For `COc1ccc(Nc2ccc(Nc3ncnc4cc(-c5ccccc5)sc34)cc2)cc1`, the melting point was 210 to 211 °C.
In the case of `Nc1ncc(I)c(N)c1I`, the melting point is reported as 206 °C.
`Cn1ccnc1Sc1ccc(F)cc1[N+](=O)[O-]` showed a melting point of 123 to 126 °C.
`CS(=O)(=O)Nc1cc(C(O)CNCCCCCCOCCCc2ccc(Cl)s2)ccc1O` (stereo unspecified) gave a melting point of 85 to 87 °C.
In the case of `CC1CCN(C)c2nc(O)ccc21` (stereo unspecified), the melting point is reported as 134 to 135 °C.
With `CCOC(=O)CC(=O)c1ccc(-c2ccc(Cl)cc2)o1` the melting point was 46 to 47 °C.
For `COc1ccc(S(=O)(=O)C=CC(=O)O)cc1`, the melting point was 123 to 128 °C.
`COc1cc(/C(C#N)=C/c2ccc(Cl)c([N+](=O)[O-])c2)cc(OC)c1OC` showed a melting point of 198 to 199 °C.
In the case of `O=c1[nH][nH]c(=O)c2c(O)c3ccc([N+](=O)[O-])cc3nc12`, the melting point is reported as > 400 °C.
`CC1(C)CC(N2CCCCCC2=O)CC(C)(C)N1CCO` showed a melting point of 141 to 142 °C.
Work on `CN(C)Cc1ccc(CNCCN2CCNC2=C(C#N)C#N)o1` yielded a melting point of 159 to 160 °C.
Work on `CSc1c(CC(=O)O)ccc2c3ccccc3n(Cc3ccc(Cl)cc3)c12` yielded a melting point of 176 to 178 °C.
In the case of `Cc1ccc(S(=O)(=O)n2ccc3c(OCC4CO4)cccc32)cc1` (stereo unspecified), the melting point is reported as 109 to 112 °C.
`CCc1cn(C(C)C(=O)N(C)C)nc1-c1ccccc1Cl` (stereo unspecified) showed a melting point of 74 to 76 °C.
For `COC(=O)c1c(CBr)cccc1CBr`, the melting point was 76 to 79 °C.
`COC(=O)C=Cc1ccc(OCCc2nc(-c3ccccc3)oc2C)nc1` gave a melting point of 138 to 139 °C.
`Cc1nc2ccc3c(c2o1)OC(CO)CO3` (stereo unspecified) gave a melting point of 120 °C.
Work on `CCCOc1c(OCc2ccccc2)cc(C2CCC(=O)O2)cc1S(=O)(=O)CCC` (stereo unspecified) yielded a melting point of 95 to 96 °C.
`COc1ccc(CNc2nnc(-n3ccc(=O)cc3)c3ccc(C#N)cc23)cc1Cl` showed a melting point of 218 to 219 °C.
Compound `Cc1c(C=C(C#N)C#N)cc(C(C)(C)C)c(O)c1Br` has a melting point of 144 °C.
`Cc1cccc(NC(=O)CN2CCN(c3ccccc3[N+](=O)[O-])CC2)c1` showed a melting point of 172 to 175 °C.
Work on `CC(=O)NC(C)(C)Cc1ccc(N(C)C)cc1` yielded a melting point of 156 to 157 °C.
`COc1ccc(-n2cccc2)c([N+](=O)[O-])c1` gave a melting point of 75.5 to 76.5 °C.
Compound `Cc1c(C(F)(F)F)nn(-c2c(Cl)cc(C(F)(F)F)cc2Cl)c1N` has a melting point of 97 to 100 °C.
`Nc1nc(=O)n(C(=O)c2cc(F)cc(F)c2)cc1F` showed a melting point of 227 to 231 °C.
Work on `CC(n1ncnn1)C(O)(c1ccc(OC(F)(F)F)cc1)c1ccc(OC(F)(F)F)cc1` (stereo unspecified) yielded a melting point of 55 to 58 °C.
`O=C(CCCCBr)NNC(=O)N1Cc2ccccc2Oc2ccc(Cl)cc21` gave a melting point of 147 to 149 °C.
With `CN(C)CCCCCCOc1ccc(C(=O)CCc2ccccc2)cc1` the melting point was 27 to 28 °C.
For `CCOC(=O)c1cc2c(Cl)ccc3c2n1CCCC=C3`, the melting point was 89 to 90 °C.
Compound `CC1=NN(C(=O)NS(=O)(=O)c2c(F)cccc2F)CC1` has a melting point of 196 °C.
In the case of `COc1ccc(S(=O)(=O)Nc2ccccc2NC(=O)c2ccccn2)cc1`, the melting point is reported as 174 to 175 °C.
Work on `Cc1ccc(S(=O)(=O)N2CCC[C@H]2C(=O)N[C@@H](Cc2ccc(OCC(N)=O)cc2)C(=O)O)cc1` (Tos-Pro-Tyr(Cam)-OH) yielded a melting point of 195 to 196 °C.
With `CCCCOCCOc1ccc(-c2cnc3c(c2)C=C(C(=O)O)CCCN3CCC)cc1` the melting point was 123 to 125 °C.
Compound `O=C(O)Cc1cccc(NC(=O)NC2C(=O)N(CC(=O)N3CCCC3)c3ccccc3N(CC(=O)N3CCCC3)C2=O)c1` has a melting point of 228 to 230 °C.
For `COC(=O)C=Cc1ccc(C(=O)NC[C@H](NC(=O)OCc2ccccc2)C(=O)OC(C)(C)C)s1`, the melting point was 98 °C.
For `Cc1cc(=O)n(C)c2ccc(OCCCN3CCC(NC(=O)c4ccccc4)CC3)cc12`, the melting point was 188 to 190 °C.
With `COc1ccc(-c2cc(=O)[nH]nc2-c2ccc(OC)c(F)c2)cc1F` the melting point was 205 to 206 °C.
Work on `CCc1cc(O)n2ncnc2n1` yielded a melting point of 212 °C.
`CC(O)c1ccc(-c2ccc(C(F)(F)F)cc2)cc1` (stereo unspecified) showed a melting point of 116 to 117 °C.
Compound `COc1c(OC)c(-c2ccccc2)n(-c2ccc(C)cc2)c1-c1ccccc1` has a melting point of 192 to 193 °C.
